Measured values: patent US6699682B2, “Assay for inhibitors of fatty-acid amide hydrolase” (The Scripps Research Institute, priority 1995, dated 2004)

Tests used:
rats = assay: effect on spontaneous behavior of rats after ip injection (induction of sleep); format: in vivo, rat
Procedure: Synthetic cis-9,10-octadecenoamide was injected (ip) into rats in order to test its effect on spontaneous behavior at different doses: 1 (n=2), 2 (n=2), 5 (n=7), 10 (n=10), 20 (n=2), and 50 (n=2) mg, where n = number of rats tested. […] However, at a threshold of 5 mg and above there was a marked effect consisting of an induction of long-lasting motor quiescence associated with eyes closed, sedated behavior characteristic of normal sleep. Also as with normal sleep, the rats still responded to auditory stimuli with orienting reflex and sustained attention toward the source of stimulation. In addition, motor behavior was impaired. The latency to behavioral sedation following administration was about 4 minutes and subjects were normally active again after 1 hour (5 mg), 2 hour (10 mg), or 2.5 hour (20 mg and 50 mg).
(§1) We have compared cis-9,10-octadecenoamide to vehicle and the synthetic analogs listed in FIG. 1 to estimate the structural specificity of its sleep-inducing potential. […] More particularly, male Sprague-Dawley rats (300 g at the time of surgery) were implanted under halothane anesthesia (2-3%) with a standard set of electrodes for sleep recordings. This included two screw electrodes placed in the parietal bone over the hippocampus to record the subjects electroencephalogram (EEG) and two wire electrodes inserted in the neck musculature to record postural tone through electromyographic activity (EMG). Rats were housed individually with at libitum access to food and water. The dark-light cycle was controlled (12:12, lights on a 10:00 p.m.). One week after the surgery, rats were habituated to the recording conditions for at least three days. Upon the completion of the habituation period, rats received 2 milliliter (ip) of either: vehicle (5% ethanol/saline solution), cis-9,10-octadecenoamide (10 mg), or oleic acid (10 mg). […] Sleep recordings were visually scored and four stages were determined: wakefulness, slow-wave-sleep 1 (SWS1), slow-wave-sleep 2 (SWS2), and rapid eye movement (REM) sleep.

male Sprague-Dawley rats = assay: polysomnographic sleep recordings (EEG/EMG) in rats; format: in vivo, rat; conditions: 10 mg ip, recorded four hours
From the text: as §1
These increases with respect to slow wave sleep (SWS) were at the expense of waking.

[1] = molecular target: T1, FAAH activity of a rat brain membrane fraction (Rattus norvegicus, UniProt P97612); format: biochemical; conditions: rat brain membrane fractions, TLC
T1 construct: Cis-9,10-octadecenoamide with rat brain membrane fraction +1 mM phenylmethylsulfonyl fluoride (PMSF); from tissue; host or cells: rat brain membrane fraction
T1 sequence (P97612 1-579): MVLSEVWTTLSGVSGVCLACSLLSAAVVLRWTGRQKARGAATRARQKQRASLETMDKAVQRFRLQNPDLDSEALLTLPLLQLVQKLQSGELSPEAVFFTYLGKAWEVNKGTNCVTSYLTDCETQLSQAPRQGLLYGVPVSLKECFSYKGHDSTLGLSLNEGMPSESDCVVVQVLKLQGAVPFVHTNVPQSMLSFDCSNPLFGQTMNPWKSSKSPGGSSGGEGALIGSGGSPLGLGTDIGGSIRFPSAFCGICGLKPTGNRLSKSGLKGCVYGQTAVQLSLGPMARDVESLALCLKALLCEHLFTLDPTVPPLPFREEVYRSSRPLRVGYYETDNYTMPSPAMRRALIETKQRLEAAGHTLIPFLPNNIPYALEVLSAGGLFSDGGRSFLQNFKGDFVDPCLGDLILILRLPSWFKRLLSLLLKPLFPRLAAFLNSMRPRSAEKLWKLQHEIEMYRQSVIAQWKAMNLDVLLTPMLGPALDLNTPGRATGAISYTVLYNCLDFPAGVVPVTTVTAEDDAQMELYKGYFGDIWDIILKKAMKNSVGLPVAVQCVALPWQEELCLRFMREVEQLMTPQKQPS
Procedure: In each case the enzymic reaction is performed is a separate reaction vessel and the product is spotted onto a TLC plate.

## CCCCCCCC/C=C\CCCCCCCC(N)=O [cis-9,10-octadecenoamide, Cis-9,10-octadecenoamide]
rats; 10 mg per rat
  duration of the biological (sleep-inducing) effect: two hours
rats; rats, ip
  threshold dose for induction of long-lasting motor quiescence with eyes closed, sedated behavior: 5 mg
rats; rats, ip, lower doses 1 and 2 mg
  effect on spontaneous behavior: no overt effect on spontaneous behavior
Male Sprague-Dawley rats
  distribution of REM sleep: does not seem to be altered
  mean duration of the SWS individual periods compared to vehicle controls: increase
  total time of slow wave sleep (SWS) compared to vehicle controls: increase in the total time of slow wave sleep (SWS)
[1]
  conversion of 14C-cis-9,10-octadecenoamide to oleic acid: Rapid conversion
